Measured values published in patent publication US20210322452A1, “COGNITIVE FUNCTION IMPROVING COMPOSITION COMPRISING NOVEL POST FERMENTED TEA-DERIVED KAEMPFEROL-BASED COMPOUND” (AMOREPACIFIC CORPORATION, priority 2016, published 2021).
Blank lines part the entries; values can stand above or below the compound they belong to.

How the values were obtained:
beta amyloid (Aβ1-42) = biological target: T1, beta amyloid (Aβ1-42) (Homo sapiens, UniProt P05067); experiment: Inhibition of beta amyloid aggregation, fluorescence analysis (ThioflavinT assay); type: biochemical; conditions: compound 10 μM; for Increased RFU (amount of aggregated beta amyloid): Aβ1-42 0.1 mg/ml, thioflavinT, 37° C., 150 minutes; for Increased RFU (% of Pos. Cont.): Pos. Cont. (only beta amyloid, no compound) = 100%; for inhibition at 10 µM: aggregation in positive control group taken as 100%, read-out: inhibition of beta amyloid aggregation compared with the positive control group
T1 construct: beta amyloid (Aβ1-42, AnaSpec Inc., USA) was obtained; purchased AnaSpec Inc., USA
T1 sequence (P05067 672-713 limits assumed): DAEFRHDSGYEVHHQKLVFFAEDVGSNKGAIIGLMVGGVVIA
Method: The effect of kaempferol3-O-[2-O″-(E)-p-coumaroyl][beta-D-glucopyranosyl-(1→3)-O-alpha-L-rhamnopyranosyl-(1→6)-O-beta-D-glucopyranoside] on inhibition of beta amyloid aggregation was confirmed by the fluorescence analysis (ThioflavinT assay).
Specifically, beta amyloid (Aβ1-42, AnaSpec Inc., USA) was obtained and used at a concentration of 0.1 mg/ml and stored at −80° C. before use. Morin (20 μM), phenol red (20 μM), and kaempferol3-O-[2-O″-(E)-p-coumaroyl][beta-D-glucopyranosyl-(1→3)-O-alpha-L-rhamnopyranosyl-(1→6)-O-beta-D-glucopyranoside] (1 mg/ml) were respectively diluted with DMSO so as to be adjusted to the concentrations.
In order to specify the degree of inhibition of Aβ1-42 aggregation, each of the compounds prepared at the above concentrations was diluted with 50 μL of 0.01 M sodium phosphate buffer solution to have a concentration of 10 μM, then 40 μL of 0.1 mg/ml of Aβ1-42 was added thereto, and then 10 μl of 2 mM thioflavinT was added thereto, and fluorescence was measured using a fluorescence spectrometer (RF-5300PC, SHIMADZU CORPORATION, Japan) at 37° C. for 150 minutes at intervals of 5 minutes.

skin = experiment: Human repeated insult patch tests (HRIPT), cumulative skin irritation; type: in vivo; parameters: key to skin reactivity (ICDRG criteria): −: Negative (no reaction); ±: Suspicious or mild erythema and the like; +: Weak reaction (not accompanied by small vesicula), erythema, papule; ++: Moderate reaction (with small vesicula), erythema, papule, vesicula; +++: Strong reaction, bulla reaction; conditions: for Number of subjects showed ±, +, or ++ reactivity, 1st time: 1st patch; for Number of subjects showed ±, +, or ++ reactivity, 1st time / Number of subjects showed ±, +, or ++ reactivity, 2nd time / Number of subjects showed ±, +, or ++ reactivity, 3rd time / Number of subjects showed ±, +, or ++ reactivity, 4th time / Number of subjects showed ±, +, or ++ reactivity, 5th time / Number of subjects showed ±, +, or ++ reactivity, 6th time / Number of subjects showed ±, +, or ++ reactivity, 7 th time / Number of subjects showed ±, +, or ++ reactivity, 8 th time / Number of subjects showed ±, +, or ++ reactivity, 9th time: three lines per group (±, +, ++; lines not labelled); for Number of subjects showed ±, +, or ++ reactivity, 2nd time: 2nd patch; for Number of subjects showed ±, +, or ++ reactivity, 3rd time: 3rd patch; for Number of subjects showed ±, +, or ++ reactivity, 4th time: 4th patch; for Number of subjects showed ±, +, or ++ reactivity, 5th time: 5th patch; for Number of subjects showed ±, +, or ++ reactivity, 6th time: 6th patch; for Number of subjects showed ±, +, or ++ reactivity, 7 th time: 7th patch; for Number of subjects showed ±, +, or ++ reactivity, 8 th time: 8th patch; for Number of subjects showed ±, +, or ++ reactivity, 9th time: 9th patch; for Average reactivity: safe when less than 3
Method: Human repeated insult patch tests (HRIPT) were conducted to determine the cumulative skin irritation by kaempferol3-O-[2-O″-(E)-p-coumaroyl][beta-D-glucopyranosyl-(1→3)-O-alpha-L-rhamnopyranosyl-(1→6)-O-beta-D-glucopyranoside] and to calculate the concentration range in which kaempferol3-O-[2-O″-(E)-p-coumaroyl][beta-D-glucopyranosyl-(1→3)-O-alpha-L-rhamnopyranosyl-(1→6)-O-beta-D-glucopyranoside] can be used on the skin.
Specifically, 15 healthy adult subjects were randomly selected, the test compositions (compositions for skin containing an emulsifier, a stabilizer, purified water, and the like in addition to the compound) containing the compound at 0.5 wt %, 1 wt %, and 3 wt % were dropped by 20 μl per chamber (IQ chamber, Epitest Ltd, Finland), and the patch was applied to the right side of the upper back of the subject and then replaced with new one after 24 hours. The skin reaction was examined before and after the patch test while the patch test was conducted three times a week and thus nine times for three weeks in total in this manner, the skin reaction was observed until the 48th hour after removal of the final patch, and the average reactivity was determined.
The skin reaction was judged according to the criteria of the International Contact Dermatitis Research Group (ICDRG). In the above table, “Novel substance 33” denotes kaempferol3-O-[2-O″-(E)-p-coumaroyl][beta-D-glucopyranosyl-(1→3)-O-alpha-L-rhamnopyranosyl-(1→6)-O-beta-D-glucopyranoside].

[1] = system: BDNF (brain-derived neurotrophic factor); experiment: Expression level of intracellular BDNF in SH-SY5Y cells (real-time quantitative PCR); type: cell-based; conditions: 24 hours, mRNA vs GAPDH, untreated = 100
Method: (§1) Specifically, SH-SY5Y (neuroblastoma, Korean Cell Line Bank) cell line was seeded in a 6-well plate (FALCON) at 2×10^6 cells per well, cultured in an incubator containing 5% CO2 at 37° C. for 24 hours, then treated with 10 μg/ml of GCG, 10 μM of EGCG, 10 μg/ml of the existing green tea extract (GTE), 10 μg/ml of the novel substance 33, and 1 μM of 5-Aza-2′deoxycytidine (5-Aza, Sigma-aldrich) as a positive control group, and further cultured for 24 hours. Thereafter, the medium was entirely removed therefrom, and RNA was extracted therefrom using an RNA extraction kit (RNeasy mini kit, Quiagen). The extracted mRNA was quantitated using an ultraviolet detector (TECAN), and then 1 μg of mRNA was synthesized into a complementary DNA using a kit (SuperScript VILO cDNA Synthesis Kit, Thermofisher Scientific). Approximately 1 μg of the complementary DNA was taken and subjected to the real-time quantitative chain reaction using Taqman probe (Life technology) and Quantitect Probe PCR Kit (Quiagen). The expression levels of BDNF and DNMT1 were thus confirmed. At this time, the housekeeping gene, GAPDH, was used as the reference mRNA.

[2] = system: DNMT1 (DNA (cytosine-5)-methyltransferase 1); experiment: Expression level of intracellular DNMT1 in SH-SY5Y cells (real-time quantitative PCR); type: cell-based; conditions: 24 hours, mRNA vs GAPDH, untreated = 100
Method: as §1

Increased RFU (amount of aggregated beta amyloid) (beta amyloid (Aβ1-42)): 11235 RFU
Increased RFU (% of Pos. Cont.) (beta amyloid (Aβ1-42)): 77.0%
inhibition at 10 µM (beta amyloid (Aβ1-42)): 23%
SMILES: CC1OC(OCC2OC(Oc3c(-c4ccc(O)cc4)oc4cc(O)cc(O)c4c3=O)C(OC(=O)/C=C/c3ccc(O)cc3)C(O)C2O)C(O)C(OC2OC(CO)C(O)C(O)C2O)C1O [Novel substance 33, kaempferol3-O-[2-O″-(E)-p-coumaroyl][beta-D-glucopyranosyl-(1→3)-O-alpha-L-rhamnopyranosyl-(1→6)-O-beta-D-glucopyranoside]]
Number of subjects showed ±, +, or ++ reactivity, 1st time (skin; 0.5 wt %): 0 persons
Number of subjects showed ±, +, or ++ reactivity, 2nd time (skin; 0.5 wt %): 0 persons
Number of subjects showed ±, +, or ++ reactivity, 3rd time (skin; 0.5 wt %): 0 persons
Number of subjects showed ±, +, or ++ reactivity, 4th time (skin; 0.5 wt %): 0 persons
Number of subjects showed ±, +, or ++ reactivity, 5th time (skin; 0.5 wt %): 0 persons
Number of subjects showed ±, +, or ++ reactivity, 6th time (skin; 0.5 wt %): 0 persons
Number of subjects showed ±, +, or ++ reactivity, 7 th time (skin; 0.5 wt %): 0 persons
Number of subjects showed ±, +, or ++ reactivity, 8 th time (skin; 0.5 wt %): 0 persons
Number of subjects showed ±, +, or ++ reactivity, 9th time (skin; 0.5 wt %): 0 persons
Average reactivity (skin; 0.5 wt %): 0
Number of subjects showed ±, +, or ++ reactivity, 1st time (skin; 1 wt %): 0 persons
Number of subjects showed ±, +, or ++ reactivity, 2nd time (skin; 1 wt %): 0 persons
Number of subjects showed ±, +, or ++ reactivity, 3rd time (skin; 1 wt %): 0 persons
Number of subjects showed ±, +, or ++ reactivity, 4th time (skin; 1 wt %): 0 persons
Number of subjects showed ±, +, or ++ reactivity, 5th time (skin; 1 wt %): 0 persons
Number of subjects showed ±, +, or ++ reactivity, 6th time (skin; 1 wt %): 0 persons
Number of subjects showed ±, +, or ++ reactivity, 7 th time (skin; 1 wt %): 0 persons
Number of subjects showed ±, +, or ++ reactivity, 8 th time (skin; 1 wt %): 0 persons
Number of subjects showed ±, +, or ++ reactivity, 9th time (skin; 1 wt %): 0 persons
Average reactivity (skin; 1 wt %): 0
Number of subjects showed ±, +, or ++ reactivity, 1st time (skin; 3 wt %): 0 persons
Number of subjects showed ±, +, or ++ reactivity, 2nd time (skin; 3 wt %): 0 persons
Number of subjects showed ±, +, or ++ reactivity, 3rd time (skin; 3 wt %): 0 persons
Number of subjects showed ±, +, or ++ reactivity, 4th time (skin; 3 wt %): 0 persons
Number of subjects showed ±, +, or ++ reactivity, 5th time (skin; 3 wt %): 0 persons
Number of subjects showed ±, +, or ++ reactivity, 6th time (skin; 3 wt %): 0 persons
Number of subjects showed ±, +, or ++ reactivity, 7 th time (skin; 3 wt %): 0 persons
Number of subjects showed ±, +, or ++ reactivity, 8 th time (skin; 3 wt %): 0 persons
Number of subjects showed ±, +, or ++ reactivity, 9th time (skin; 3 wt %): 0 persons
Average reactivity (skin; 3 wt %): 0
skin reactivity (ICDRG criteria) (skin; all the content ranges (0.5, 1, 3 wt %), 15 subjects, 9 patches in 3 weeks): −
Relative expression level of BDNF ([1]; 10 μg/ml): 128%
Relative expression level of DNMT1 ([2]; 10 μg/ml): 78%

SMILES: Nc1ncn([C@H]2C[C@H](O)[C@@H](CO)O2)c(=O)n1 [5-Aza-2′deoxycytidine, reference compound]
Relative expression level of BDNF ([1]; 1 μM): 149%
Relative expression level of DNMT1 ([2]; 1 μM): 65%

Increased RFU (amount of aggregated beta amyloid) (beta amyloid (Aβ1-42)): 11471 RFU
Increased RFU (% of Pos. Cont.) (beta amyloid (Aβ1-42)): 78.6%
inhibition at 10 µM (beta amyloid (Aβ1-42)): 21.4%
SMILES: O=c1c(O)c(-c2ccc(O)cc2O)oc2cc(O)cc(O)c12 [Morin]

Increased RFU (% of Pos. Cont.) (beta amyloid (Aβ1-42)): 93.6%
inhibition at 10 µM (beta amyloid (Aβ1-42)): 6.4%
SMILES: O=S1(=O)OC(c2ccc(O)cc2)(c2ccc(O)cc2)c2ccccc21 [Phenol Red]
